Test results published in EP2019109A1, “Trimetal-arene clusters with anticancer activity” (Université de Neuchâtel, priority 2007, dated 2009).

Legend:
[1] = test system: A2780cisR ovarian carcinoma cell line; test: MTT assay, inhibition of cell viability; format: cell-based; settings: for IC50: cisplatin-resistant A2780cisR ovarian carcinoma cell line, 72 hours of incubation, MTT assay; for cytotoxic activity (in words): A2780cisR, statement drawn from Table 1
Description: (§1) The effects of the clusters on the cancer cell growth were evaluated after an exposure period of 72 hours using the MTT [3-(4,5-dimethylthiazol-2-yl)-2,5-diphenyltetrazolium bromide] assay which measures mitochondrial dehydrogenase activity as an indication of cell viability. In addition, the dose-response curves for 1a and 1b against the two cell lines are illustrated in Figures 2a and 2b. Table 1. Inhibition of cell viability (IC50) of complexes on A2780 and A2780cisR ovarian carcinoma cell lines after 72 hours of incubation, determined using MTT assay.

[2] = test system: A2780 ovarian carcinoma cell line; test: MTT assay, inhibition of cell viability; format: cell-based; settings: for IC50: A2780 ovarian carcinoma cell line, 72 hours of incubation, MTT assay; for cytotoxic activity (in words): A2780, statement drawn from Table 1
Description: as §1

IC50 [1] [µM] | IC50 [2] [µM] | Molecule | cytotoxic activity (in words) [1] | cytotoxic activity (in words) [2] | increase in cisplatin resistance ([1]; A2780cisR versus A2780) [fold]
> 100 | > 100 | [(η^6-C6H6)4Ru4(µ-H)3(µ-OH)][Cl]2 [Compound 2c] |  |  | 
> 100 | > 100 | [(η^6-C6H5Me)4Ru4(µ-H)4][BF4]2 [Compound 2b] |  |  | 
> 100 | > 100 | [(η^6-C6H6)4Ru4(µ-H)4][BF4]2 [Compound 2a] |  |  | 
14.6 ± 0.7 | 9.8 ± 0.2 | [(η^6-C6H6)(η^6-C6Me6)2Ru3(µ-H)3(µ3-O)][BF4] [Compound 1a] | remarkably active | remarkably active | 
28.9 ± 2.8 | 9.1 ± 0.9 | [(η^6-C6H6)(η^6-1,4-^iPrC6H4Me)(η^6-C6Me6)Ru3(µ-H)3(µ3-O)][BF4] [Compound 1b] | remarkably active | remarkably active | 

Molecule | IC50 [1] [µM] | IC50 [2] [µM] | cytotoxic activity (in words) [1] | cytotoxic activity (in words) [2] | increase in cisplatin resistance ([1]; A2780cisR versus A2780) [fold]
Cc1ccc(C(C)C)cc1.[Cl][Ru]([Cl])[PH]12CN3CN(CN(C3)C1)C2 [RAPTA-C, reference compound] | > 100 | > 100 |  |  | 
N.N.[Cl][Pt][Cl] [Cisplatin, reference compound] | 8.7 ± 1.6 | 1.5 ± 0.3 |  |  | 6
